Experimental data: patent US9884842B2, “Combretastatin analogs” (The Board of Trustees of the University of Arkansas, priority 2013, dated 2018)

Experiments:
OVCAR-5 = experiment: NCI growth inhibition and cytotoxicity screen, Ovarian Cancer panel; settings: Homo sapiens
HOP-92 = experiment: NCI growth inhibition and cytotoxicity screen, Lung Cancer panel; settings: Homo sapiens
MDA-MB-231/ATCC = experiment: NCI growth inhibition and cytotoxicity screen, Breast Cancer panel; settings: Homo sapiens
BT-549 = experiment: as above; settings: Homo sapiens
TK-10 = experiment: NCI growth inhibition and cytotoxicity screen, Renal Cancer panel; settings: Homo sapiens
DU-145 = experiment: NCI growth inhibition and cytotoxicity screen, Prostate Cancer panel; settings: Homo sapiens
MDA-MB-468 = experiment: cells; settings: Homo sapiens
SN12C = experiment: NCI growth inhibition and cytotoxicity screen, Renal Cancer panel; settings: Homo sapiens
A549/ATCC = experiment: NCI growth inhibition and cytotoxicity screen, Lung Cancer panel; settings: Homo sapiens
A498 = experiment: NCI growth inhibition and cytotoxicity screen, Renal Cancer panel; settings: Homo sapiens
SK-MEL-2 = experiment: NCI growth inhibition and cytotoxicity screen, Melanoma panel; settings: Homo sapiens
SF-539 = experiment: NCI growth inhibition and cytotoxicity screen, CNS Cancer panel; settings: Homo sapiens
SK-MEL-5 = experiment: NCI growth inhibition and cytotoxicity screen, Melanoma panel; settings: Homo sapiens
ACHN = experiment: NCI growth inhibition and cytotoxicity screen, Renal Cancer panel; settings: Homo sapiens
HCC-2998 = experiment: NCI growth inhibition and cytotoxicity screen, Colon Cancer panel; settings: Homo sapiens
MALME-3M = experiment: NCI growth inhibition and cytotoxicity screen, Melanoma panel; settings: Homo sapiens
SK-MEL-28 = experiment: as above; settings: Homo sapiens
HOP-62 = experiment: NCI growth inhibition and cytotoxicity screen, Lung Cancer panel; settings: Homo sapiens
CCRF-CEM = experiment: NCI growth inhibition and cytotoxicity screen, Leukemia panel; settings: Homo sapiens
SF-268 = experiment: NCI growth inhibition and cytotoxicity screen, CNS Cancer panel; settings: Homo sapiens
MDA-MB-435 = experiment: NCI growth inhibition and cytotoxicity screen, Melanoma panel; settings: Homo sapiens
HL-60(TB) = experiment: cells; settings: Homo sapiens
OVCAR-3 = experiment: cells; settings: Homo sapiens
OVCAR-4 = experiment: NCI growth inhibition and cytotoxicity screen, Ovarian Cancer panel; settings: Homo sapiens
SW-620 = experiment: NCI growth inhibition and cytotoxicity screen, Colon Cancer panel; settings: Homo sapiens
NCI-H322M = experiment: NCI growth inhibition and cytotoxicity screen, Lung Cancer panel; settings: Homo sapiens
T-47D = experiment: NCI growth inhibition and cytotoxicity screen, Breast Cancer panel; settings: Homo sapiens, T47D
IGROV1 = experiment: NCI growth inhibition and cytotoxicity screen, Ovarian Cancer panel; settings: Homo sapiens
NCI-H460 = experiment: NCI growth inhibition and cytotoxicity screen, Lung Cancer panel; settings: Homo sapiens
SK-OV-3 = experiment: NCI growth inhibition and cytotoxicity screen, Ovarian Cancer panel; settings: Homo sapiens
K-562 = experiment: NCI growth inhibition and cytotoxicity screen, Leukemia panel; settings: Homo sapiens
786-0 = experiment: NCI growth inhibition and cytotoxicity screen, Renal Cancer panel; settings: Homo sapiens

## COc1cc(/C(C#N)=C\c2cc3ccccc3s2)cc(OC)c1OC [Formula (I)(a)]
OVCAR-5; OVCAR-5
  GI50: < 10 nM
OVCAR-5; OVCAR-5, read-out: LC50
  CC50: > 100000 nM
HOP-92; HOP-92
  GI50: < 10 nM
HOP-92; HOP-92, read-out: LC50
  CC50: > 100000 nM
MDA-MB-231/ATCC; MDA-MB-231
  GI50: < 10 nM
MDA-MB-231/ATCC; MDA-MB-231, read-out: LC50
  CC50: > 100000 nM
BT-549; BT-549
  GI50: < 10 nM
BT-549; BT-549, read-out: LC50
  CC50: > 100000 nM
TK-10; TK-10
  GI50: < 10 nM
TK-10; TK-10, read-out: LC50
  CC50: > 100000 nM
DU-145; DU-145
  GI50: < 10 nM
DU-145; DU-145, read-out: LC50
  CC50: > 100000 nM
MDA-MB-468; MDA-MB-468
  GI50: < 10 nM
MDA-MB-468; MDA-MB-468, read-out: LC50
  CC50: > 100000 nM
SN12C
  GI50: < 10 nM
SN12C; read-out: LC50
  CC50: > 100000 nM
A549/ATCC; A549
  GI50: < 10 nM
A549/ATCC; A549, read-out: LC50
  CC50: > 100000 nM
A498; A498
  GI50: < 10 nM
A498; A498, read-out: LC50
  CC50: > 100000 nM
SK-MEL-2; SK-MEL-2
  GI50: < 10 nM
SK-MEL-2; SK-MEL-2, read-out: LC50
  CC50: > 100000 nM
SF-539; SF-539
  GI50: < 10 nM
SF-539; SF-539, read-out: LC50
  CC50: > 100000 nM
SK-MEL-5; SK-MEL-5
  GI50: < 10 nM
SK-MEL-5; SK-MEL-5, read-out: LC50
  CC50: > 100000 nM
ACHN
  GI50: < 10 nM
ACHN; read-out: LC50
  CC50: > 100000 nM
HCC-2998; HCC 2998
  GI50: 19.2 nM
HCC-2998; HCC 2998, read-out: LC50
  CC50: > 100000 nM
MALME-3M
  GI50: < 10 nM
MALME-3M; read-out: LC50
  CC50: > 100000 nM
SK-MEL-28; SK-MEL-28
  GI50: < 10 nM
SK-MEL-28; SK-MEL-28, read-out: LC50
  CC50: > 100000 nM
HOP-62; HOP-62
  GI50: < 10 nM
HOP-62; HOP-62, read-out: LC50
  CC50: > 100000 nM
CCRF-CEM
  GI50: < 10 nM
CCRF-CEM; read-out: LC50
  CC50: > 100000 nM
SF-268; SF-268
  GI50: < 10 nM
SF-268; SF-268, read-out: LC50
  CC50: > 100000 nM
MDA-MB-435; MDA-MB-435
  GI50: < 10 nM
MDA-MB-435; MDA-MB-435, read-out: LC50
  CC50: > 100000 nM
HL-60(TB); HL-60
  GI50: < 10 nM
HL-60(TB); HL-60, read-out: LC50
  CC50: > 100000 nM
OVCAR-3; OVCAR-3
  GI50: < 10 nM
OVCAR-3; OVCAR-3, read-out: LC50
  CC50: > 100000 nM
OVCAR-4; OVCAR-4
  GI50: < 10 nM
OVCAR-4; OVCAR-4, read-out: LC50
  CC50: > 100000 nM
SW-620; SW-620
  GI50: < 10 nM
SW-620; SW-620, read-out: LC50
  CC50: > 100000 nM
NCI-H322M
  GI50: 18.3 nM
NCI-H322M; read-out: LC50
  CC50: > 100000 nM
T-47D
  GI50: < 10 nM
T-47D; read-out: LC50
  CC50: > 100000 nM
IGROV1; IGROV-1
  GI50: < 10 nM
IGROV1; IGROV-1, read-out: LC50
  CC50: > 100000 nM
NCI-H460; NCI-H460
  GI50: < 10 nM
NCI-H460; NCI-H460, read-out: LC50
  CC50: > 100000 nM
SK-OV-3; SK-OV-3
  GI50: < 10 nM
SK-OV-3; SK-OV-3, read-out: LC50
  CC50: > 100000 nM
K-562; K562
  GI50: < 10 nM
K-562; K562, read-out: LC50
  CC50: > 100000 nM
786-0; 786-0
  GI50: < 10 nM
786-0; 786-0, read-out: LC50
  CC50: > 100000 nM
